Values joined by “and” are separate entries in the source; they are usually repeats but may differ in a detail not shown here. Identical values can stand only once. Inconclusive results are not listed.
Tested on: BDF1 mice, colon carcinoma 38 sc, T/C %
Assay: NCI In Vivo Anticancer Drug Screen. Data for tumor model Colon Carcinoma 38 (subcutaneous) in B6D2F1 (BDF1) mice
Outline: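 T/C readout: treated group (T) measurement over vehicle control group (C) measurement. Endpoint is survival or tumor size in mice bearing a transplanted tumor.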

[1] = endpoint: median tumor weight (est.), dose: 6.25 mg/kg/injection, schedule: Q07DX003 (ip), vehicle: Klucel (hydroxypropylcellulose) (HPC), higher = larger tumour
[2] = endpoint: median tumor weight (est.), dose: 50.0 mg/kg/injection, schedule: Q07DX003 (ip), vehicle: Klucel (hydroxypropylcellulose) (HPC), higher = larger tumour
[3] = endpoint: median tumor weight (est.), dose: 25.0 mg/kg/injection, schedule: Q07DX002 (ip), vehicle: saline with Tween-80, higher = larger tumour
[4] = endpoint: median tumor weight (est.), dose: 50.0 mg/kg/injection, schedule: Q07DX002 (ip), vehicle: saline with Tween-80, higher = larger tumour
[5] = endpoint: median tumor weight (est.), dose: 100.0 mg/kg/injection, schedule: Q07DX002 (ip), vehicle: saline with Tween-80, higher = larger tumour
[6] = endpoint: median tumor weight (est.), dose: 200.0 mg/kg/injection, schedule: Q07DX002 (ip), vehicle: saline with Tween-80, higher = larger tumour
[7] = endpoint: median tumor weight (est.), dose: 25.0 mg/kg/injection, schedule: Q07DX002 (ip), vehicle: saline, higher = larger tumour
[8] = endpoint: median tumor weight (est.), dose: 100.0 mg/kg/injection, schedule: Q07DX002 (ip), vehicle: saline, higher = larger tumour
[9] = endpoint: median tumor weight (est.), dose: 200.0 mg/kg/injection, schedule: Q07DX002 (ip), vehicle: saline, higher = larger tumour
[10] = endpoint: median tumor weight (est.), dose: 6.25 mg/kg/injection, schedule: Q07DX002 (ip), vehicle: saline with Tween-80, higher = larger tumour
[11] = endpoint: median tumor weight (est.), dose: 25.0 mg/kg/injection, schedule: Q07DX002 (ip), vehicle: Klucel (hydroxypropylcellulose) (HPC), higher = larger tumour
[12] = endpoint: median tumor weight (est.), dose: 12.5 mg/kg/injection, schedule: Q07DX002 (ip), vehicle: saline with Tween-80, higher = larger tumour

CN(Cc1cnc2nc(N)nc(N)c2n1)c1c(Cl)cc(C(=O)NC(CCC(=O)O)C(=O)O)cc1Cl (stereo unspecified)
T/C (endpoint: median tumor weight (est.), dose: 3.12 mg/kg/injection, schedule: Q07DX003 (ip), vehicle: Klucel (hydroxypropylcellulose) (HPC), higher = larger tumour): 155 % of control
T/C [1]: 117 % of control
T/C (endpoint: median tumor weight (est.), dose: 12.5 mg/kg/injection, schedule: Q07DX003 (ip), vehicle: suspension in saline, higher = larger tumour): 87 % of control
T/C (endpoint: median tumor weight (est.), dose: 25.0 mg/kg/injection, schedule: Q07DX003 (ip), vehicle: suspension in saline, higher = larger tumour): 124 % of control
T/C [2]: 72 % of control
T/C (endpoint: median tumor weight (est.), dose: 50.0 mg/kg/injection, schedule: Q07DX003 (ip), vehicle: suspension in saline, higher = larger tumour): 77 % of control
T/C (endpoint: median tumor weight (est.), dose: 100.0 mg/kg/injection, schedule: Q07DX003 (ip), vehicle: Klucel (hydroxypropylcellulose) (HPC), higher = larger tumour): 90 % of control
T/C (endpoint: median tumor weight (est.), dose: 100.0 mg/kg/injection, schedule: Q07DX003 (ip), vehicle: suspension in saline, higher = larger tumour): 86 % of control
T/C (endpoint: median tumor weight (est.), dose: 200.0 mg/kg/injection, schedule: Q07DX003 (ip), vehicle: Klucel (hydroxypropylcellulose) (HPC), higher = larger tumour): 102 % of control
T/C (endpoint: median tumor weight (est.), dose: 200.0 mg/kg/injection, schedule: Q07DX003 (ip), vehicle: suspension in saline, higher = larger tumour): 81 % of control
T/C (endpoint: median tumor weight (est.), dose: 400.0 mg/kg/injection, schedule: Q07DX003 (ip), vehicle: Klucel (hydroxypropylcellulose) (HPC), higher = larger tumour): 62 % of control
T/C (endpoint: median tumor weight (est.), dose: 400.0 mg/kg/injection, schedule: Q07DX003 (ip), vehicle: suspension in saline, higher = larger tumour): 101 % of control

c1ccc([C@H]2CN3CCSC3=N2)cc1
T/C (endpoint: median tumor weight (est.), dose: 10.0 mg/kg/injection, schedule: Q07DX003 (ip), vehicle: saline, higher = larger tumour): 77 % of control
T/C (endpoint: median tumor weight (est.), dose: 40.0 mg/kg/injection, schedule: Q07DX003 (ip), vehicle: saline, higher = larger tumour): 45 % of control

CCOC(=O)c1[nH]c2cccc3c2c1CC(Br)C3=O (stereo unspecified)
T/C [3]: 120 % of control
T/C [4]: 92 % of control
T/C [5]: 90 % of control
T/C [6]: 78 % of control

Cn1cnc([N+](=O)[O-])c1Sc1ncn[nH]1
T/C [7]: 78 % of control
T/C (endpoint: median tumor weight (est.), dose: 25.0 mg/kg/injection, schedule: Q07DX002 (ip), vehicle: suspension in saline, higher = larger tumour): 112 % of control
T/C (endpoint: median tumor weight (est.), dose: 50.0 mg/kg/injection, schedule: Q07DX002 (ip), vehicle: saline, higher = larger tumour): 73 % of control
T/C (endpoint: median tumor weight (est.), dose: 50.0 mg/kg/injection, schedule: Q07DX002 (ip), vehicle: suspension in saline, higher = larger tumour): 118 % of control
T/C [8]: 79 % of control
T/C (endpoint: median tumor weight (est.), dose: 100.0 mg/kg/injection, schedule: Q07DX002 (ip), vehicle: suspension in saline, higher = larger tumour): 85 % of control
T/C [9]: 52 % of control
T/C (endpoint: median tumor weight (est.), dose: 400.0 mg/kg/injection, schedule: Q07DX002 (ip), vehicle: saline, higher = larger tumour): 65 % of control
T/C (endpoint: median tumor weight (est.), dose: 400.0 mg/kg/injection, schedule: Q07DX002 (ip), vehicle: suspension in saline, higher = larger tumour): 107 % of control
T/C (endpoint: median tumor weight (est.), dose: 800.0 mg/kg/injection, schedule: Q07DX002 (ip), vehicle: saline, higher = larger tumour): 84 % of control

O=c1[nH]c(=O)n([C@H]2CCCO2)cc1F
T/C (endpoint: median tumor weight (est.), dose: 40.0 mg/kg/injection, schedule: Q07DX003 (ip), vehicle: Klucel (hydroxypropylcellulose) (HPC), higher = larger tumour): 166 % of control
T/C (endpoint: median tumor weight (est.), dose: 80.0 mg/kg/injection, schedule: Q07DX003 (ip), vehicle: Klucel (hydroxypropylcellulose) (HPC), higher = larger tumour): 116 % of control
T/C (endpoint: median tumor weight (est.), dose: 160.0 mg/kg/injection, schedule: Q07DX003 (ip), vehicle: Klucel (hydroxypropylcellulose) (HPC), higher = larger tumour): 57 % of control
T/C (endpoint: median tumor weight (est.), dose: 320.0 mg/kg/injection, schedule: Q07DX003 (ip), vehicle: Klucel (hydroxypropylcellulose) (HPC), higher = larger tumour): 25 % of control

COc1ccc(S(=O)(=O)N/N=C/C(=O)O)cc1
T/C [10]: 82 % of control
T/C [3]: 96 % of control and 104 % of control
T/C [4]: 117 % of control and 100 % of control
T/C [6]: 87 % of control and 95 % of control

C=C(C)[C@H]1CN[C@H](C(=O)O)[C@H]1CC(=O)O
T/C (endpoint: median tumor weight (est.), dose: 0.62 mg/kg/injection, schedule: Q07DX002 (ip), vehicle: saline, higher = larger tumour): 58 % of control
T/C (endpoint: median tumor weight (est.), dose: 1.25 mg/kg/injection, schedule: Q07DX002 (ip), vehicle: saline, higher = larger tumour): 80 % of control
T/C (endpoint: median tumor weight (est.), dose: 2.5 mg/kg/injection, schedule: Q07DX002 (ip), vehicle: saline, higher = larger tumour): 92 % of control
T/C (endpoint: median tumor weight (est.), dose: 5.0 mg/kg/injection, schedule: Q07DX002 (ip), vehicle: saline, higher = larger tumour): 95 % of control
T/C (endpoint: median tumor weight (est.), dose: 6.25 mg/kg/injection, schedule: Q07DX002 (ip), vehicle: saline, higher = larger tumour): 90 % of control
T/C (endpoint: median tumor weight (est.), dose: 10.0 mg/kg/injection, schedule: Q07DX002 (ip), vehicle: saline, higher = larger tumour): 79 % of control
T/C (endpoint: median tumor weight (est.), dose: 12.5 mg/kg/injection, schedule: Q07DX002 (ip), vehicle: saline, higher = larger tumour): 73 % of control
T/C (endpoint: median tumor weight (est.), dose: 20.0 mg/kg/injection, schedule: Q07DX002 (ip), vehicle: saline, higher = larger tumour): 90 % of control
T/C [7]: 90 % of control

CSc1nc(=O)[nH]nc1SCc1ccccc1
T/C [11]: 151 % of control and 169 % of control
T/C (endpoint: median tumor weight (est.), dose: 400.0 mg/kg/injection, schedule: Q07DX002 (ip), vehicle: Klucel (hydroxypropylcellulose) (HPC), higher = larger tumour): 65 % of control

C[Si](C)(C)OSc1ccccc1[N+](=O)[O-]
T/C [11]: 118 % of control
T/C (endpoint: median tumor weight (est.), dose: 50.0 mg/kg/injection, schedule: Q07DX002 (ip), vehicle: Klucel (hydroxypropylcellulose) (HPC), higher = larger tumour): 113 % of control
T/C (endpoint: median tumor weight (est.), dose: 100.0 mg/kg/injection, schedule: Q07DX002 (ip), vehicle: Klucel (hydroxypropylcellulose) (HPC), higher = larger tumour): 110 % of control
T/C (endpoint: median tumor weight (est.), dose: 800.0 mg/kg/injection, schedule: Q07DX002 (ip), vehicle: Klucel (hydroxypropylcellulose) (HPC), higher = larger tumour): 86 % of control

O=c1[nH]cnc2c1ncn2C1OC(CO)C(O)C1O (stereo unspecified)
T/C (endpoint: median survival time, dose: 250.0 mg/kg/injection, schedule: Q04DX004 (ip), vehicle: saline with Tween-80, higher = longer survival): 108 % of control
T/C (endpoint: median survival time, dose: 250.0 mg/kg/injection, schedule: Q04DX004 (ip), vehicle: saline, higher = longer survival): 107 % of control
T/C (endpoint: median survival time, dose: 500.0 mg/kg/injection, schedule: Q04DX004 (ip), vehicle: saline with Tween-80, higher = longer survival): 121 % of control
T/C (endpoint: median survival time, dose: 500.0 mg/kg/injection, schedule: Q04DX004 (ip), vehicle: saline, higher = longer survival): 120 % of control
T/C (endpoint: median survival time, dose: 1000.0 mg/kg/injection, schedule: Q04DX004 (ip), vehicle: saline with Tween-80, higher = longer survival): 60 % of control
T/C (endpoint: median survival time, dose: 1000.0 mg/kg/injection, schedule: Q04DX004 (ip), vehicle: saline, higher = longer survival): 58 % of control

O=C(CCCN1CCC(O)(c2cccc(C(F)(F)F)c2)CC1)c1ccc(F)cc1
T/C [1]: 78 % of control and 80 % of control
T/C (endpoint: median tumor weight (est.), dose: 12.5 mg/kg/injection, schedule: Q07DX003 (ip), vehicle: Klucel (hydroxypropylcellulose) (HPC), higher = larger tumour): 84 % of control and 95 % of control
T/C (endpoint: median tumor weight (est.), dose: 25.0 mg/kg/injection, schedule: Q07DX003 (ip), vehicle: Klucel (hydroxypropylcellulose) (HPC), higher = larger tumour): 113 % of control and 93 % of control
T/C [2]: 100 % of control

CCCC(=O)OC1C=C2N3C(=O)C4CC56C(=CC(OC(C)=O)C7OC75)N4C(=O)C3CC26C2OC12 (stereo unspecified)
T/C (endpoint: median tumor weight (est.), dose: 1.25 mg/kg/injection, schedule: Q07DX002 (ip), vehicle: Klucel (hydroxypropylcellulose) (HPC), higher = larger tumour): 111 % of control
T/C (endpoint: median tumor weight (est.), dose: 2.5 mg/kg/injection, schedule: Q07DX002 (ip), vehicle: Klucel (hydroxypropylcellulose) (HPC), higher = larger tumour): 92 % of control
T/C (endpoint: median tumor weight (est.), dose: 5.0 mg/kg/injection, schedule: Q07DX002 (ip), vehicle: Klucel (hydroxypropylcellulose) (HPC), higher = larger tumour): 102 % of control
T/C (endpoint: median tumor weight (est.), dose: 10.0 mg/kg/injection, schedule: Q07DX002 (ip), vehicle: Klucel (hydroxypropylcellulose) (HPC), higher = larger tumour): 76 % of control

O=C(O)C1Cc2nc[nH]c2CN1CO (stereo unspecified)
T/C [3]: 93 % of control
T/C [4]: 117 % of control and 98 % of control
T/C [5]: 113 % of control and 99 % of control
T/C [6]: 86 % of control
T/C (endpoint: median tumor weight (est.), dose: 400.0 mg/kg/injection, schedule: Q07DX002 (ip), vehicle: saline with Tween-80, higher = larger tumour): 93 % of control
T/C (endpoint: median tumor weight (est.), dose: 800.0 mg/kg/injection, schedule: Q07DX002 (ip), vehicle: saline with Tween-80, higher = larger tumour): 89 % of control

CCCCCCCCCCCCCCCC(=O)O[C@@]12C[C@@H](C)[C@@]3(O)[C@@H](C=C(CO)C[C@]4(O)C(=O)C(C)=C[C@@H]34)[C@@H]1C2(C)C
T/C (endpoint: median tumor weight (est.), dose: 0.06 mg/kg/injection, schedule: Q07DX002 (ip), vehicle: saline, higher = larger tumour): 92 % of control
T/C (endpoint: median tumor weight (est.), dose: 0.25 mg/kg/injection, schedule: Q07DX002 (ip), vehicle: saline, higher = larger tumour): 91 % of control
T/C (endpoint: median tumor weight (est.), dose: 0.5 mg/kg/injection, schedule: Q07DX002 (ip), vehicle: saline, higher = larger tumour): 101 % of control
T/C (endpoint: median tumor weight (est.), dose: 1.0 mg/kg/injection, schedule: Q07DX002 (ip), vehicle: saline, higher = larger tumour): 60 % of control

O=C(CO)c1ccc([N+](=O)[O-])cc1
T/C [10]: 72 % of control
T/C [12]: 105 % of control
T/C [3]: 90 % of control
T/C [5]: 97 % of control
T/C [6]: 80 % of control

c1cnc2ncncc2n1
T/C [10]: 88 % of control
T/C [12]: 83 % of control and 95 % of control
T/C [5]: 80 % of control and 89 % of control
T/C [8]: 124 % of control
T/C [6]: 73 % of control and 88 % of control
T/C [9]: 181 % of control
